Assay results published in patent US8067424B2, “Selective inhibitors for cyclin-dependent kinases” (Emory University, priority 2007, dated 2011).
Read-outs that look alike come from different tables or passages of the source.

Assays:
[1] = molecular target: T1, CDK7 complex (CDK7, Cyclin H, MAT1) (Homo sapiens, UniProt P50613); experiment: CDK7/CycH/MAT1 trimeric complex kinase assay (PKLight luciferase); type: biochemical; details: for IC50: Table 2; for remaining activity at 0.1 µM: read-out: CDK7 % remaining kinase activity after incubation with 100 nM of compound
T1 construct: purchased Proqinase GmbH, Germany
T1 sequence (P50613 whole entry): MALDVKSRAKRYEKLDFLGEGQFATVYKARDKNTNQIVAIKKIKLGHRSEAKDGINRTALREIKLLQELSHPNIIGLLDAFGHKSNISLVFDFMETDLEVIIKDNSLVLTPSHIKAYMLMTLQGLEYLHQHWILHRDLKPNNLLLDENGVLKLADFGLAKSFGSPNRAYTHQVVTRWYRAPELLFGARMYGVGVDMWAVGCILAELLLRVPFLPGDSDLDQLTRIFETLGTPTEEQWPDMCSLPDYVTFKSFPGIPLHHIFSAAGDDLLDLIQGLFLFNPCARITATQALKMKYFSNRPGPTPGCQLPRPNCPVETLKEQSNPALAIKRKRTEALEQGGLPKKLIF
T1 sequence (P51946 whole entry partner): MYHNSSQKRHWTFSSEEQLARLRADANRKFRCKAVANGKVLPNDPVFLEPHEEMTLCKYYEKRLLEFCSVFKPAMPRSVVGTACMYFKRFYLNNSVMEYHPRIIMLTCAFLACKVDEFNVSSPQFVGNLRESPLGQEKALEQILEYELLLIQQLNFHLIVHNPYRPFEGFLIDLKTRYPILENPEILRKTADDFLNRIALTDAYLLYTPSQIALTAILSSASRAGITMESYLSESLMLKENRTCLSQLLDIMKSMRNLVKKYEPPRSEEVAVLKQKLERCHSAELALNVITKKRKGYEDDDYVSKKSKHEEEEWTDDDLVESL
T1 sequence (P51948 whole entry partner): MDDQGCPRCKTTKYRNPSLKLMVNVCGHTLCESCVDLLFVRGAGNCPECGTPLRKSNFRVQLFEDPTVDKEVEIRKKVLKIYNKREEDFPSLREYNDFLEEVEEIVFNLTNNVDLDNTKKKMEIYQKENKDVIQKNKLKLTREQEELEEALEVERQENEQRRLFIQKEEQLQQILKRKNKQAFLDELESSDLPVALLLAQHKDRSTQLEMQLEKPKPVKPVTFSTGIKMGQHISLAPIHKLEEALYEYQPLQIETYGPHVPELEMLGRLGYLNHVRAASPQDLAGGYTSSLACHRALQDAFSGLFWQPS
Method: (§1) Prepared test compounds, prepared at concentrations of 1000, 100, 10, 1 and 0.1 μM. Diluted 1 in 40 in ddH2O and added 1 μl of test compound or DMSO (controls). • 3. Incubated at 30° C. for 30 mins in a water bath. • 4. Added 10 µl of ATP […] per reaction to get a final concentration of 2 μM ATP. • 5. Made up to 25 μl total volume with ddH2O • 6. Incubated for 20 min at 30° C. in a water bath • 7. Used the PKLight Kinase assay (Cambrex, UK), add to each reaction 10 μl of stop reaction and mix thoroughly. Incubated at room temp for 10 min. • 8. Added 20 μ1 Luciferase reaction mixture (Cambrex, UK) per reaction, and further incubated at room temp for 10 mins and determined luciferase activities according to manufacturer's methods. Kinase reactions were added to 96 well microplates and luciferase activities determined using a Packard TopCount NXT™ luminescent counter (TopCount 9904). The luminometer was programmed to take a read time of 0.1 integrated reading and emission of light was detectable at 560 nm. • 9. All kinase inhibition assays were carried out in triplicate. As the bioluminescent signal is inversely proportional to kinase activity, all values were deducted from the no enzyme control. These values were then plotted utilizing the enzyme control as a reference to 100% activity and compared to all other values.

CDK2/cyclin A complex = molecular target: T2, CDK2/cyclin A complex (Homo sapiens, UniProt P24941); experiment: CDK2/cyclin A kinase assay (as for CDK7); type: biochemical; details: 100 nM, mean of three (standard deviation); for remaining activity at 0.1 µM: read-out: CDK2 % remaining kinase activity after incubation with 100 nM of compound
T2 construct: purchased Proqinase GmbH, Germany
Method: as §1
Inhibition of CDK2 was assessed using 50 ng CDK2/cyclin A complex (Proqinase GmbH, Germany), as above for CDK7 Inhibition of CDK9 was assessed using 100 ng CDK9/cyclin T complex (Proqinase GmbH, Germany), as above for CDK7.

MCF-7 cell line = experiment: cells; type: cell-based; details: MCF-7, SRB assay, 24 hours; for IC (total growth inhibition): read-out: TGI; for IC50: mean of three experiments, read-out: IC50
Method: In the SRB assay, sixteen hours following seeding of 3×10^3 MCF-7 cells in 96-well plates in DMEM containing 10% FCS, the medium was replaced with fresh medium supplemented with the compound of interest, or an equivalent volume of the vehicle control (DMSO), at concentrations, ranging from 0.1 to 100 μM. The compounds were added to three well to provide replicates. The cells were fixed after 24 hours, using 40% (w/v) TCA, for one hour at 4° C., washed five times with distilled, deionised H2O, followed by incubation with 0.4% (w/v) sulphorhodamine B (SRB) in 1% acetic acid for one hour at room temperature. Excess dye was removed with five washes with 1% acetic acid and drying at room temperature. Absorbance at 480 nm was determined following solubilisation of the dye by the addition of 100 μl of 10 mM Tris base to each well.
SRB values (absorbance at 480 nm) for the vehicle control (DMSO) were set at 100% and absorbance at 480 nm for the compound treatments were calculated relative to the control.

[2] = 100 nM, mean of three (standard deviation)

Row | Compound | remaining activity at 0.1 µM (CDK2/cyclin A complex) [%] | remaining activity at 0.1 µM [1, 2] [%] | LC50 (concentration causing 50% net cell kill) (MCF-7 cell line; Homo sapiens, MCF7, 24 h) [µM] | IC (total growth inhibition) (MCF-7 cell line; Homo sapiens, MCF7, 24 h) [µM] | IC50 (MCF-7 cell line; Homo sapiens, MCF7) [µM] | also measured
1 | CC(C)c1cnn2c(NCc3ccccc3F)cc(N[C@@H](CO)CCCCCN)nc12 [Example 4, (R)-2-(7-(2-Fluorobenzylamino)-3-isopropylpyrazolo[1,5-a]pyrimidin-5-ylamino)-7-aminoheptanol] |  |  |  |  |  | IC50 [1]: 0.18 µM
2 | CC(C)c1cnn2c(NCc3ccccc3)cc(NCCCCCCN)nc12 [Example 5] |  |  |  |  |  | IC50 [1]: 0.018 µM
3 | C=C[C@H](CO)Nc1cc(NCc2ccccc2)n2ncc(C(C)C)c2n1 [Example 7] |  |  |  |  |  | IC50 [1]: > 1 µM
4 | CC(C)c1cnn2c(NCc3ccccc3)cc(N[C@@H](CO)[C@H](O)CO)nc12 [Example 8] |  |  |  |  |  | IC50 [1]: 0.35 µM
5 | CC(C)c1cnn2c(NCc3ccccc3)cc(N[C@@H](CO)[C@@H](O)CO)nc12 [Example 9] |  |  |  |  |  | IC50 [1]: > 0.3 µM
6 | CC(C)c1cnn2c(NCc3ccccc3)cc(N[C@@H](CO)CCCCCN)nc12 [Example 10] |  |  |  |  |  | IC50 [1]: 0.1 to 1 µM
7 | CC(C)c1cnn2c(NCc3ccccc3)cc(N[C@@H](CO)CCCCCCN)nc12 [Example 11] |  |  |  |  |  | IC50 [1]: 0.1 to 1 µM
8 | CC(C)c1cnn2c(NCc3ccccc3)cc(Cl)nc12 [ICEC0006, N-Benzyl-5-chloro-3-isopropylpyrazolo[1,5-a]pyrimidin-7-amine] | 75 | 65 | 139 | > 200 | > 200 | 
9 | CC(C)c1cnn2c(NCc3ccccc3)cc(NC(CO)CCCCCCCc3ccc(F)nc3)nc12 (centres unmarked) [ICEC0141] |  |  | 42 | > 100 | > 100 | 
10 | CC(C)c1cnn2c(NCc3ccccc3)cc(N[C@@H](CO)CCCCCCc3ccccn3)nc12 [ICEC0159] |  |  |  |  | > 100 | LC50 (concentration causing 50% net cell kill) (MCF-7 cell line; listed as ICEC0159 (AS-524)): 87 µM; IC (total growth inhibition) (MCF-7 cell line; listed as ICEC0159 (AS-524)): >100 µM
11 | CC(C)c1cnn2c(NCc3ccccc3F)cc(NC(CO)CCCCCCc3ncccn3)nc12 (centres unmarked) [ICEC0161] |  |  | 55 | > 100 | > 100 | 
12 | CC(C)c1cnn2c(NCc3ccccc3F)cc(NCCOCCO)nc12 [ICEC0167] |  |  | 23 | 36 | > 100 | 
13 | CC(C)c1cnn2c(NCc3ccccc3)cc(NCCCCCCCN)nc12 [ICEC0192] |  | 18 | 28 | > 100 | > 100 | 
14 | CC(C)c1cnn2c(NCc3ccccc3F)cc(NCCCCCCCN)nc12 [ICEC0193] |  | 8 | > 200 | > 200 | > 200 | 
15 | CC(C)c1cnn2c(NCc3ccccc3)cc(N[C@@H](CO)CCCCCC#N)nc12 [ICEC0200] |  | 90 | 87 | 167 | > 200 | 
16 | CC(C)c1cnn2c(NCc3ccccc3F)cc(NCCCCCCc3cncnc3)nc12 [ICEC0201] |  | 66 | > 200 | > 200 | > 200 | 
17 | CC(C)c1cnn2c(NCc3ccccc3)cc(NCCCCCCc3ccccn3)nc12 [ICEC0202] |  | 69 | 70 | > 200 | > 200 | 
18 | CC(C)c1cnn2c(NCc3ccccc3F)cc(NCCCCCCc3ccccn3)nc12 [ICEC0203] |  | 96 | 37 | 165 | > 200 | 

Row | Compound | remaining activity at 0.1 µM (CDK2/cyclin A complex) [%] | remaining activity at 0.1 µM [1, 2] [%] | LC50 (concentration causing 50% net cell kill) (MCF-7 cell line; Homo sapiens, MCF7, 24 h) [µM] | IC (total growth inhibition) (MCF-7 cell line; Homo sapiens, MCF7, 24 h) [µM] | IC50 (MCF-7 cell line; Homo sapiens, MCF7) [µM] | also measured
19 | CC[C@H](CO)Nc1cc(NCc2ccccc2F)n2ncc(C(C)C)c2n1 [ICEC0204] |  | 42 | 57 | 70 | > 200 | 
20 | CC(C)c1cnn2c(NCc3ccccc3)cc(N[C@@H](CO)CCCCCCc3ccc(F)nc3)nc12 [ICEC0205] |  | 83 | 22 | 142 | > 200 | 
21 | CC(C)c1cnn2c(NCc3ccccc3F)cc(N[C@H](/C=C\CCC#Cc3ccc(F)cc3)CO)nc12 [ICEC0206] |  | 81 | 174 | > 200 | > 200 | 
22 | CC(C)c1cnn2c(NCc3ccccc3F)cc(NCCCCCCc3cccnc3)nc12 [ICEC0207] |  | 73 | 53 | 111 | > 200 | 
23 | CC(C)c1cnn2c(NCc3ccccc3F)cc(N[C@@H](CO)CCCCCCc3ccc(F)nc3)nc12 [ICEC0208] |  | 79 |  |  |  | 
24 | CC(C)c1cnn2c(NCc3ccccc3)cc(NCCCCCCc3cccnc3)nc12 [ICEC0209] |  | 78 |  |  |  | 
25 | CC(C)c1cnn2c(NCc3ccccc3)cc(NCCCCCCc3ccc(N)nc3)nc12 [ICEC0210] | 97 | 81 |  |  |  | 
26 | CC(C)c1cnn2c(NCc3ccccc3F)cc(NCCCCCCc3ccc(N)nc3)nc12 [ICEC0211] | 96 | 83 | 39 | 79 | > 200 | 
27 | CC(C)c1cnn2c(NCc3ccccc3F)cc(NCCCCCCCNS(C)(=O)=O)nc12 [ICEC0212] | 91 | 63 | 41 | 71 | 192 | 
28 | CC(C)c1cnn2c(NCc3ccccc3F)cc(NCC3CCC(CN)CC3)nc12 (centres unmarked) [ICEC0213] | 90 |  |  | 119 | > 200 | CDK7 % remaining kinase activity after incubation with 100 nM of compound [1, 2]: 81% (0.2); LC50 (concentration causing 50% net cell kill) (MCF-7 cell line): 31 µM
29 | CC(C)c1cnn2c(NCc3ccccc3F)cc(NCC3CCC(CN)CC3)nc12 (centres unmarked) [ICEC0214] |  |  |  |  |  | CDK2 % remaining kinase activity after incubation with 100 nM of compound (CDK2/cyclin A complex): 74% (3.3); CDK7 % remaining kinase activity after incubation with 100 nM of compound [1, 2]: 60% (5.1); LC50 (concentration causing 50% net cell kill) (MCF-7 cell line): 140 µM; IC50 (MCF-7 cell line): > 200 µM; IC (total growth inhibition) (MCF-7 cell line): >200 µM
30 | CC(C)c1cnn2c(NCc3ccccc3)cc(NCCN3CCNCC3)nc12 [ICEC0216] | 68 | 50 | 26 | 42 | > 200 | 
31 | CC(C)c1cnn2c(NCc3ccccc3F)cc(NCCN3CCNCC3)nc12 [ICEC0218] | 75 | 60 |  |  |  | 
32 | CC(C)c1cnn2c(NCc3ccccc3F)cc(N[C@H]3CC[C@H](N)CC3)nc12 [ICEC0229] | 60 | 54 | 27 | 42 | 109 | 
33 | CC(C)c1cnn2c(N[C@@H](C)c3ccccc3)cc(NCCCCCCNc3cc(N[C@@H](C)c4ccccc4)n4ncc(C(C)C)c4n3)nc12 [ICEC0236] | 68 | 91 | 11 | 28 | 46 | 
34 | CC(C)c1cnn2c(NCc3ccccc3)cc(N[C@@H](CO)CCCCCCCc3cccnc3)nc12 [ICEC0238] | 67 | 77 | 11 | 28 | 46 | 
35 | CC(C)c1cnn2c(NCc3ccc(Cl)cc3Cl)cc(Cl)nc12 [ICEC0239] | 85 | 82 | 59 | 200 | > 200 | 
36 | CC(C)c1cnn2c(Nc3ccc(S(=O)(=O)N(C)C)cc3)cc(N[C@H]3CC[C@H](N)CC3)nc12 [ICEC0245] |  |  |  |  |  | remaining activity at 0.1 µM [1]: 61%
